Here are results for 30 molecules from patent US10947213B1 (Merck Patent GmbH, priority 2015, dated 2021).

Counter-ions that a name gives are not always drawn.

This assay has as its target T1, TLR7/NFKb HEK cells (Homo sapiens, UniProt Q9NYK1).
T1 construct: expressed in transfected cells; host or cells: HEK cells (TLR7/NFKb reporter line)
T1 sequence (Q9NYK1 27-1049): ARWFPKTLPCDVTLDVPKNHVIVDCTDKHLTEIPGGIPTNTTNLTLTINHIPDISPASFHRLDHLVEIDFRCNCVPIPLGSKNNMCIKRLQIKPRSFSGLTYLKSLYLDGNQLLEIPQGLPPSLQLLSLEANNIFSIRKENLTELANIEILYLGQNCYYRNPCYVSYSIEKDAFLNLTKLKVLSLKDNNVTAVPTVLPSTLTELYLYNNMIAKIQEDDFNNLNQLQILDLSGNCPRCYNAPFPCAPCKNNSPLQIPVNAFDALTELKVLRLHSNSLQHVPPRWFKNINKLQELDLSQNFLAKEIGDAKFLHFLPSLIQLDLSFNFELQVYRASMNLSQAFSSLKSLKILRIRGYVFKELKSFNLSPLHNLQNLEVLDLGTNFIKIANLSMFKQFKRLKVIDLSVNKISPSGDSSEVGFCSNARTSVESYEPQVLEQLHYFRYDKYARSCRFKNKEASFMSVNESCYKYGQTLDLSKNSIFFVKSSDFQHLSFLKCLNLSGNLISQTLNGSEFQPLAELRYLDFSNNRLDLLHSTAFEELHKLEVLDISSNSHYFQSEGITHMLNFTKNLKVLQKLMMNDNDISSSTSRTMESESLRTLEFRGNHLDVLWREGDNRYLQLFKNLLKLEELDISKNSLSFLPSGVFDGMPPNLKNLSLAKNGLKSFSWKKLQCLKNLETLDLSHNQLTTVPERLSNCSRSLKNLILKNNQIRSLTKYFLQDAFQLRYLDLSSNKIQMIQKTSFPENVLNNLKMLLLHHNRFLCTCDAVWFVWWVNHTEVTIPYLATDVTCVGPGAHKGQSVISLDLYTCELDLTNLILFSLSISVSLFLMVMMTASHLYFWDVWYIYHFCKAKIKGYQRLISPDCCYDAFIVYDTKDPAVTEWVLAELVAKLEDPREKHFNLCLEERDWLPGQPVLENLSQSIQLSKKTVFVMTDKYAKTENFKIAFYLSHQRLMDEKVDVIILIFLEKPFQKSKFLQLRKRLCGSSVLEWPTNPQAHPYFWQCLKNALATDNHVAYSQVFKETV
Kind of assay: HEK Cell Assay (TLR7/NFKb reporter, Steady-Glo luciferase readout). The assay is classed as cell-based. Particulars: 30 min compound preincubation, then R*48 agonist for 5 hours, read-out: Potency. In a few lines:
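Steady-Glo luminescence after 5 h stimulation with R*48 agonist, following 30 min compound preincubation. Assay run in HEK cells carrying a TLR7/NFKb luciferase reporter, plated at 5000 cells/well and grown 24 h at 37° C (10% CO2) before treatment.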

In the case of `CCN(CC)CCNC(=O)C1CCN(c2ccc(C(F)(F)F)c3ncccc23)CC1` [Compound 446, 1-(8-Trifluoromethyl-quinolin-5-yl)-piperidine-4-carboxylic Acid (2-diethylamino-ethyl)-amide], the IC50 is less than 1 µM.

For `CCN1CCC[C@H]1C(=O)NC1CC(C(F)(F)F)CN(c2ccc(C#N)c3ncccc23)C1` (single isomer, unassigned) [Compound 437], the IC50 lay within 1 to 10 µM.

Consider `C[C@H]1C[C@@H](NC(=O)C2(N)CC2)CN(c2ccc(C#N)c3nccnc23)C1` [Compound 31, 1-amino-N-((3R,5S)-1-(8-cyanoquinoxalin-5-yl)-5-methylpiperidin-3-yl)cyclopropanecarboxamide hydrochloride], for which the IC50 lay within 1 to 10 µM.

On to `N#Cc1ccc(N2CC(NC3CCC(O)CC3)CC(C(F)(F)F)C2)c2nccnc12` (single isomer, unassigned) [Compound 91, cis,cis-8-(3-((4-hydroxycyclohexyl)amino)-5-(trifluoromethyl)piperidin-1-yl)quinoxaline-5-carbonitrile], for which the IC50 was less than 1 µM.

As for `CC(C)[C@H](O)C(=O)NC1CC(C(F)(F)F)CN(c2ccc(C#N)c3nccnc23)C1` (single isomer, unassigned) [Compound 88], the IC50 is less than 1 µM.

In the case of `CC1(C)CCN(CC(=O)N[C@@H]2C[C@H](C(F)(F)F)CN(c3ccc(C#N)c4ncccc34)C2)C1` [Compound 577, N-[(3R,5S)-1-(8-Cyano-quinolin-5-yl)-5-trifluoromethyl-piperidin-3-yl]-2-(3,3-dimethyl-pyrrolidin-1-yl)-acetamide], the IC50 is less than 1 µM.

With `N[C@@H]1C[C@H](C(F)(F)F)CN(c2ccnc3nccnc23)C1` (racemic) [Compound 84], the IC50 is 1 to 10 µM.

On to `CC(C)N1CCC(CC(=O)N[C@@H]2C[C@H](C(F)(F)F)CN(c3ccc(C#N)c4ncccc34)C2)CC1` [Compound 585, N-[(3R,5S)-1-(8-Cyano-quinolin-5-yl)-5-trifluoromethyl-piperidin-3-yl]-2-(1-isopropyl-piperidin-4-yl)-acetamide], for which the IC50 is less than 1 µM.

As to `N#Cc1ccc(N2CC(NC(=O)CC3(N)CCCCC3)CC(C(F)(F)F)C2)c2cccnc12` (single isomer, unassigned) [Compound 498], the IC50 was less than 1 µM.

Take `C[C@H]1C[C@@H](NC2CCN(C)C2=O)CN(c2ccc(Cl)c3ncccc23)C1` (single isomer, unassigned) [Compound 260]: the IC50 is less than 1 µM.

Consider `C[C@H]1C[C@@H](NC(=O)CN2CCOCC2)CN(c2ccc(C#N)c3nccnc23)C1` [Compound 108, N-[(3R,5S)-1-(8-cyanoquinoxalin-5-yl)-5-methylpiperidin-3-yl]-2-(morpholin-4-yl)acetamide], for which the IC50 is less than 1 µM.

In the case of `CN1CCC(NC2CC(C(F)(F)F)CN(c3ccc(C#N)c4nccnc34)C2)C1=O` (single isomer, unassigned) [Compound 225], the IC50 is 1 to 10 µM.

For the molecule `C[C@H]1C[C@@H](NC(=O)CC2CCN(C)C2)CN(c2ccc(C(F)(F)F)c3ncccc23)C1` (stereo partly drawn) [Compound 283, N-[(3R,5S)-5-methyl-1-[8-(trifluoromethyl)quinolin-5-yl]piperidin-3-yl]-2-(1-methylpyrrolidin-3-yl)acetamide hydrochloride], the IC50 is less than 1 µM.

In the case of `CC(C)[C@H](O)C(=O)N[C@H]1C[C@@H](C(F)(F)F)CN(c2ccnc3nccnc23)C1` [Compound 90, (2S)-2-hydroxy-3-methyl-N-[(3S,5R)-1-[pyrido[2,3-b]pyrazin-8-yl]-5-(trifluoromethyl)piperidin-3-yl]butanamide hydrochloride], the IC50 was more than 10 µM.

`C[C@H]1C[C@@H](NC(=O)CO)CN(c2ccnc3ccccc23)C1` [Compound 14, 2-hydroxy-N-((3R,5S)-5-methyl-1-(quinolin-4-yl)piperidin-3-yl)acetamide]: the IC50 is more than 10 µM.

Turning to `C[C@H]1C[C@@H](NC(=O)CN(C)C)CN(c2ccnc3nccnc23)C1` [Compound 33, 2-(dimethylamino)-N-((3R,5S)-5-methyl-1-(pyrido[2,3-b]pyrazin-8-yl)piperidin-3-yl)acetamide], the IC50 is 1 to 10 µM.

`C[C@H]1C[C@@H](NC(=O)C2CC(F)(F)C2)CN(c2ccc(C(F)(F)F)c3ncccc23)C1` [Compound 247, 3,3-difluoro-N-[(3R,5S)-5-methyl-1-[8-(trifluoromethyl)quinolin-5-yl]piperidin-3-yl]cyclobutane-1-carboxamide]: the IC50 is less than 1 µM.

For `N#Cc1ccc(N2C[C@@H](NC(=O)CCC(N)=O)C[C@@H](C(F)(F)F)C2)c2cccnc12` (relative stereo) [Compound 480, cis-N-[1-(8-Cyano-quinolin-5-yl)-5-trifluoromethyl-piperidin-3-yl]-succinamide], the IC50 was 1 to 10 µM.

`CC(C(=O)N[C@@H]1C[C@H](C)CN(c2ccc(C(F)F)c3nccnc23)C1)N1CC(O)C1` (stereo partly drawn) [Compound 321, N-[(3R,5S)-1-[8-(difluoromethyl)quinoxalin-5-yl]-5-methylpiperidin-3-yl]-2-(3-hydroxyazetidin-1-yl)propanamide]: the IC50 was in the range of 1 to 10 µM.

As for `C[C@H]1C[C@@H](NC(=O)CC(C)(C)C)CN(c2c(F)cc(C#N)c3nccnc23)C1` [Compound 343, N-[(3R,5S)-1-(8-cyano-6-fluoroquinoxalin-5-yl)-5-methylpiperidin-3-yl]-3,3-dimethylbutanamide], the IC50 lay within 1 to 10 µM.

For `CC1CC(CN2CCN(C)CC2)CN(c2ccc(C(F)(F)F)c3ncccc23)C1` (single isomer, unassigned) [Compound 533, cis-5-[3-Methyl-5-(4-methyl-piperazin-1-ylmethyl)-piperidin-1-yl]-8-trifluoromethyl-quinoline], the IC50 was less than 1 µM.

With `C[C@H]1C[C@@H](NC(=O)CC2CNC2)CN(c2ccc(C#N)c3nccnc23)C1` [Compound 274, 2-(azetidin-3-yl)-N-[(3R,5S)-1-(8-cyanoquinoxalin-5-yl)-5-methylpiperidin-3-yl]acetamide], the IC50 is less than 1 µM.

For `CN1CCC(N[C@H]2CN(c3ccc(C#N)c4nccnc34)CC(C)(C)C2)C1=O` (stereo partly drawn) [Compound 219, 8-[(5R)-3,3-dimethyl-5-[(1-methyl-2-oxopyrrolidin-3-yl)amino]piperidin-1-yl]quinoxaline-5-carbonitrile], the IC50 was less than 1 µM.

Take `N#Cc1ccc(N2C[C@@H](NC(=O)CO)C[C@@H](C(F)(F)F)C2)c2nccnc12` (relative stereo) [Compound 223, cis-N-[1-(8-cyanoquinoxalin-5-yl)-5-(trifluoromethyl)piperidin-3-yl]-2-hydroxyacetamide]: the IC50 fell in the range of 1 to 10 µM.

Turning to `N#Cc1ccc(N2C[C@H](NCCC(F)(F)F)C[C@H](C(F)(F)F)C2)c2nccnc12` (relative stereo) [Compound 95, cis-8-[3-(trifluoromethyl)-5-[(3,3,3-trifluoropropyl)amino]piperidin-1-yl]quinoxaline-5-carbonitrile], the IC50 fell in the range of 1 to 10 µM.

As to `C[C@H]1C[C@@H](NC(=O)CN2CC(O)C2)CN(c2ccc(C(F)F)c3ncccc23)C1` [Compound 308, N-[(3R,5S)-1-[8-(difluoromethyl)quinolin-5-yl]-5-methylpiperidin-3-yl]-2-(3-hydroxyazetidin-1-yl)acetamide], the IC50 fell in the range of 1 to 10 µM.

As for `C[C@H]1C[C@@H](NC(=O)CN(C)C)CN(c2ccc(C(F)(F)F)c3ncccc23)C1` [Compound 199, 2-(dimethylamino)-N-[(3R,5S)-5-methyl-1-[8-(trifluoromethyl)quinolin-5-yl]piperidin-3-yl]acetamide], the IC50 was less than 1 µM.

Regarding `C[C@H]1C[C@@H](NC(C)(C)CO)CN(c2ccc(C#N)c3nccnc23)C1` [Compound 231, 8-[(3R,5S)-3-[(1-hydroxy-2-methylpropan-2-yl)amino]-5-methylpiperidin-1-yl]quinoxaline-5-carbonitrile], the IC50 was less than 1 µM.

With `CCC(C)CC(=O)N[C@@H]1C[C@H](C)CN(c2ccc(C#N)c3nccnc23)C1` (single isomer, unassigned) [Compound 151], the IC50 was less than 1 µM.

Consider `CCN(CC)CCNCC1CCN(c2ccc(C#N)c3ncccc23)CC1` [Compound 401, 5-{4-[(2-Diethylamino-ethylamino)-methyl]-piperidin-1-yl}-quinoline-8-carbonitrile], for which the IC50 was 1 to 10 µM.
